Results on two molecules are retold here after US20100179103A1 (priority 2008, published 2010).

Data set [1] has as its system carrageenan paw inflammation. In words: mouse carrageenan paw inflammation (paw edema) model. It is filed as in vivo. As to conditions: 3 hours; p.o. gavage; curcumin 30 mg/kg, CDC 30 mg/kg, indomethacin 5 mg/kg; male CD-1 mice. Background: Carrageenan injected into the paw causes an acute inflammation.
For data set [2] the following is noted: in vivo; cited from earlier work.

Broadly, the Tmax is the time at which the peak concentration occurs.

Take `COc1cc(/C=C/C(=O)CC(=O)/C=C/c2ccc(O)c(OC)c2)ccc1O` [curcumin, Curcumin]: in data set [1], the “swelling (edema: left paw thickness minus right paw thickness)” value is listed as 0.66 mm. The Tmax in data set [2] was 3 to 5 min.
In the case of `COc1ccc2c(c1)c(CC(=O)O)c(C)n2C(=O)c1ccc(Cl)cc1` [indomethacin, Indomethacin], the “swelling (edema: left paw thickness minus right paw thickness)” value in data set [1] was found to be 0.73 mm.
